Values quoted from earlier work as cited in patent US6642179B2, “Inhibition of vegetative growth” (priority 2000, dated 2003).

Test system: grass
Conditions: versus 5-acetamido-2-methyltrifluoromethanesulfonanilide

CC(=O)Nc1cc(NS(=O)(=O)C(F)(F)F)c(C)cc1C [5-acetamido-2,4-dimethyltrifluoromethanesulfonanilide]
effectiveness as grass growth regulator compared with 5-acetamido-2-methyltrifluoromethanesulfonanilide: much more effective grass growth regulator
